Results reported in patent US9428501B2, “Bicyclic nitrogen-containing aromatic heterocyclic amide compound” (ASTELLAS PHARMA INC., priority 2013, dated 2016).
Read-outs that look alike come from different tables or passages of the source.

Experiments:
[1] = target: human mitochondrial Complex I (Homo sapiens, UniProt O75251+O75306+P03886); assay type: biochemical
Procedure: Mitochondria was extracted from MDA-MB-453 tumor, and the Complex I inhibitory activity of the test compound was evaluated.
Human PIK3CA mutation-positive breast cancer cell line MDA-MB-453 cells were subcutaneously implanted into nude mice, MDA-MB-453 tumor was excised, a mitochondria extraction solution (0.25 M Sucrose, 2 mM EDTA, 10 mM Tris/HCl pH 7.5) of 9 times of tumor weight was added thereto, and crushing was carried out thereon. The reaction mixture was centrifuged at 600×g and 4° C. for 10 minutes to obtain a supernatant, and the supernatant was centrifuged at 14000×g and 4° C. for 10 minutes, thereby obtaining a pellet. The pellet was suspended in 10 mM Tris/HCl pH 7.5 of 5 times of the excised tumor weight, thereby obtaining a human mitochondrial suspension.
Next, 25 μl of the human mitochondrial suspension per 1 ml of Complex I activity measurement solution (200 mM potassium phosphate pH 7.6, 0.35% Bovine Serum Albumin (BSA), 60 μM 2,6-dichlorophenol-indophenol, 70 μM decylubiquinone, 1 μM antimycin) was added. After dispensed into a 96 or 384-well plate, a test compound (from 10000 nM to 0.3 nM) and DMSO which is a solvent for the test compound as a negative control were added such that a final concentration of Rotenone which is a Complex I inhibitor as a positive control becomes 1 μM. Further, NADH was added so as to have a final concentration of 0.2 mM, and a change in absorbance at a wavelength of 600 nm using SpectraMax (manufactured by Molecular Devices LLC) set to 37° C. in advance was measured. […] Moreover, in the Table, Ex indicates Example No. (the same shall apply hereinafter.).

AMPK = test: Evaluation of AMPK activation effect (phosphorylation of ACC Ser79, Cell ELISA in MDA-MB-453 cells); assay type: cell-based, human; conditions: 2 hours
Procedure: By measuring phosphorylation of 79th serine (Ser79) of Acetyl-CoA Carboxylase (ACC) which is a substrate of AMPK with Cell ELISA, the AMPK activation effect by the test compound was evaluated.
In order to make MDA-MB-453 cell become 15000 cells per well, each 36 μl was seeded in Leibovitz's L-15 medium including 10% fetal bovine serum (manufactured by Life Technologies Corp.) in a 384 well plate, followed by culturing at 37° C. overnight in the absence of CO2. […] After the incubation, 20 μl of a 40% glyoxal solution (Nacalai Tesque) was added to each well, and then cells were fixed by leaving to stand at room temperature for 30 minutes. Thereafter, the supernatant was removed by centrifuging the plate, and then 0.1% Triton X-100-containing Phosphate-Buffered Saline (PBS) was added to each well by 20 followed by incubating at room temperature for 10 minutes. The 0.1% Triton X-100-containing PBS was removed by centrifuging for 8 seconds at 800 rpm (all solution removal operation by centrifuge described below were carried out under the same conditions), and then a blocking solution (ODYSSEY Blocking Buffer; manufactured by Li—COR Biosciences) was added to each well by 20 μl, followed by leaving to stand at room temperature for 1 hour. The blocking solution was removed by centrifuging, with the exception of the blocking solution by centrifugation, and then a blocking solution which was diluted such that the amount of phosphorylation antibody (manufactured by Cell Signaling Technology, Inc) of ACC Ser79 as a primary antibody is 1/500 was added to each well by 10 followed by leaving to stand at 4° C. overnight. The following day, the reaction liquid was removed by centrifuging the plate, and then 0.05% Tween-20-containing Tris-Buffered Saline (TBS) (manufacture by Thermo Scientific Inc.; used in 1× in which 20×TBS Tween-20 was diluted with ion-exchange water) was added to each well by 25 followed by washing each well by centrifugal removal. The washing of each well was repeated for a total of 3 times. After washing, a blocking solution which was diluted such that the amount of IRDye 800CW Goat anti-Rabbit IgG (manufactured by Li—CoR Biosciences) as a secondary antibody is 1/1000 was added to each well by 10 μl, followed by leaving to stand at room temperature for 1 hour. After the secondary antibody reaction, the reaction liquid was removed by centrifuging the plate, and then each well was washed three times with 0.05% Tween-20-containing TBS in the same manner as after the primary antibody reaction. After the washing solution was removed, without change, the plate was air-dried at room temperature for 3 hours or longer and signals were measured by Aerius (manufactured by Li—CoR Biosciences).

[2] = system: human PIK3CA mutation-positive breast cancer cell line MDA-MB-453 cells; test: Scaffold independent cell proliferation inhibitory effect, MDA-MB-453 cells; assay type: cell-based; conditions: non-adhesive plate, 4 days, CellTiter-Glo, read-out: IC50 (cell proliferation inhibition)
Procedure: The effect on proliferation of cancer cells of the test compound was evaluated.
Measurement (colony method) of the scaffold independent cell proliferation is known as a system in which the anti-cancer effect of the test compound is examined. As a method for measuring cell-non-adhesive proliferation substituting the colony method, there is a method of using a non-adhesive plate as follows.
Thereafter, the cells were cultured for 4 days at 37° C. in the absence of CO2, and a cytometric reagent (CellTiter-Glo Luminescent Cell Viability assay manufactured by Promega Corporation) was added. The resultant product was stirred for 30 minutes, and then measurement was carried out using a luminescence measurement apparatus (ARVO manufactured by Perkin Elmer Inc.).

MDA-MB-453 cells = test: Anti-tumor effect in MDA-MB-453 cell cancer-bearing mouse; assay type: in vivo; conditions: oral, once a day for 15 days, Balb/c nude mouse
Procedure: 3×10^6 cells of MDA-MB-453 cells which were suspended with PBS were subcutaneously injected to be planted in the back of a 5 to 6 weeks old male Balb/c nude mouse (provided by Charles River Laboratories, Japan). 10 days after planting, the test compound was administered. The test was carried out on respective five mice of the solvent group and the test compound administered group, and 6% aqueous cyclodextrin solution was administered to the solvent group, and a mixture of 6% aqueous cyclodextrin solution and the test compound (1 or 3 mg/kg) was orally administered to the test compound administered group. Administration was carried out once a day for 15 days, and body weight and tumor size were measured approximately every other day. The following equation was used to calculate the tumor volume.

[3] = mitochondria from MDA-MB-453 tumor, absorbance 600 nm, 37° C.; read-out: IC50 (Complex I inhibition)

Sequence of human mitochondrial Complex I (O75251 39-213 limits assumed): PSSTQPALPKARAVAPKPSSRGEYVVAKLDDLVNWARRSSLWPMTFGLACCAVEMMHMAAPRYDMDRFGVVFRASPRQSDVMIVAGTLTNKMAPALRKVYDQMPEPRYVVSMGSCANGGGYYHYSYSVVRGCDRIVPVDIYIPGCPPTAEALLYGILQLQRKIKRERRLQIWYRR
Sequence of human mitochondrial Complex I (O75306 34-463 limits assumed): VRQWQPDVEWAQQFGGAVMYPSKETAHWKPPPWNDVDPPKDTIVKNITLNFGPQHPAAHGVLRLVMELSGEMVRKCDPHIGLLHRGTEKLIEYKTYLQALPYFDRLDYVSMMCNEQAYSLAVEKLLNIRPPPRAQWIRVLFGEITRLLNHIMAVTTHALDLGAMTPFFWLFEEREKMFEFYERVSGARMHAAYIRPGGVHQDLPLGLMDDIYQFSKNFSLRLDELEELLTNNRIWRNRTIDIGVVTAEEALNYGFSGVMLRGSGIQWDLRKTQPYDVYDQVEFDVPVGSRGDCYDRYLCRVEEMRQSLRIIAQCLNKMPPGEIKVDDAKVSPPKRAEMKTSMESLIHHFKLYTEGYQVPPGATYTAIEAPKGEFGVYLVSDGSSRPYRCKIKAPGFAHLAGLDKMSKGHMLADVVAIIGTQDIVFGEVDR
Sequence of human mitochondrial Complex I (P03886 whole entry): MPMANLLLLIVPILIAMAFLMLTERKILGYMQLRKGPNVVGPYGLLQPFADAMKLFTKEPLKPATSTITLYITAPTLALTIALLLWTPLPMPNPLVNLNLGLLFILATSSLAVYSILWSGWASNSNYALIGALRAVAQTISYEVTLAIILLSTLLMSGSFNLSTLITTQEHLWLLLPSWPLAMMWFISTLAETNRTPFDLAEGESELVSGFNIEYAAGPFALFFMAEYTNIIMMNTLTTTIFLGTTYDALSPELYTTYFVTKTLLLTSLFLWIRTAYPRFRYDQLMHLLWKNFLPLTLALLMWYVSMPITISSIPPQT

Structure (SMILES)	IC50 [1, 3] [nM]	EC50 (AMPK) [nM]	IC50 ([2]; Homo sapiens, 96 h) [nM]	further results
COc1cnc(CN2CCC(c3ccc4c(c3)cc(C(=O)N3CCN(Cc5ccc(C#N)cc5)CC3)n4C)CC2)cn1 [Ex 79]	120	3.3	–	IC50 [2]: 7.8 nM; Anti-tumor effect, regression rate (MDA-MB-453 cells; 1 mg/kg): 43% regression
COc1ccc(CN2CCC(c3ccc4nc(C(=O)N5CCN(Cc6ccc(C#N)cc6)CC5)[nH]c4c3)CC2)cn1 [Example 23]	160	19	40	–
COc1ccc(CN2CCC(n3cc4cc(C(=O)N5CCN(Cc6ccc(C(F)(F)F)cc6)CC5)ccc4n3)CC2)cn1 [Example 57]	–	1.8	–	–
CCOc1cnc(CN2CCC(n3cc4cc(C(=O)N5CCN(Cc6ccc(C(F)(F)F)cc6)CC5)ccc4n3)CC2)cn1 [Example 58]	–	0.86	0.55	–
COc1cnc(CN2CCC(c3ccn4nc(C(=O)N5CCN(Cc6ccc(C(F)(F)F)cc6)CC5)cc4c3)CC2)cn1 [Example 50]	–	14	4	–
COc1cnc(CN2CCC(c3ccc4[nH]c(C(=O)N5CCN(Cc6ccc(C(F)(F)F)cc6)CC5)nc4c3)CC2)cn1 [Example 7, (5-{1-[(5-methoxypyrazin-2-yl)methyl]piperidin-4-yl}-1H-benzimidazol-2-yl){4-[4-(trifluoromethyl)benzyl]piperazin-1-yl}methanone ditosylate]	75	–	12	Anti-tumor effect, regression rate (MDA-MB-453 cells; 3 mg/kg): 49% regression
COc1ccc(CN2CCC(c3ccc4nc(C(=O)N5CCN(Cc6ccc(C(F)(F)F)cc6)CC5)n(C)c4c3)CC2)cn1 [Example 18]	–	3	–	–
COc1ccc(CN2CCC(c3ccn4cc(C(=O)N5CCN(Cc6ccc(C(F)(F)F)cc6)CC5)nc4c3)CC2)cn1 [Example 36, (7-{1-[(6-methoxypyridin-3-yl)methyl]piperidin-4-yl}imidazo[1,2-a]pyridin-2-yl){4-[4-(trifluoromethyl)benzyl]piperazin-1-yl}methanone ditosylate]	55	5.1	11	Anti-tumor effect, regression rate (MDA-MB-453 cells; 3 mg/kg): 10% regression
COc1ccc(CN2CCC(c3ccn4nc(C(=O)N5CCN(Cc6ccc(C(F)(F)F)cc6)CC5)cc4c3)CC2)cn1 [Example 49]	18	6.5	2.8	–
COc1ccc(CN2CCC(c3ccc4[nH]c(C(=O)N5CCN(Cc6ccc(C(F)(F)F)cc6)CC5)nc4c3)CC2)cn1 [Example 1, (5-{1-[(6-methoxypyridin-3-yl)methyl]piperidin-4-yl}-1H-benzimidazol-2-yl){4-[4-(trifluoromethyl)benzyl]piperazin-1-yl}methanone ditosylate]	–	–	–	Anti-tumor effect, regression rate (MDA-MB-453 cells; 3 mg/kg): 26% regression
COc1ccc(CN2CCC(c3cc4cc(C(=O)N5CCN(Cc6ccc(C(F)(F)F)cc6)CC5)n(C)c4cn3)CC2)cn1 [Example 44]	87	5.2	4.2	–
COc1ccc(CN2CCC(c3ccc4nc(C(=O)N5CCN(Cc6ccc7c(c6)OC(F)(F)O7)CC5)[nH]c4c3)CC2)cn1 [Example 37]	29	10	8.9	–
CCOc1cnc(CN2CCC(c3ccc4cc(C(=O)N5CCN(Cc6ccc(C#N)cc6)CC5)n(C)c4c3)CC2)cn1 [Example 69]	22	–	3.2	Anti-tumor effect, regression rate (MDA-MB-453 cells; 1 mg/kg): 87% regression
COc1ccc(CN2CCC(c3ccc4nc(C(=O)N5CCN(Cc6ccc(C(F)(F)F)cc6F)CC5)[nH]c4c3)CC2)cn1 [Example 38]	59	13	8.1	–
Cc1cnc(CN2CCC(c3ccc4nc(C(=O)N5CCN(Cc6ccc(C(F)(F)F)cc6)CC5)[nH]c4c3)CC2)cn1.Cl.Cl.Cl [Example 8, (6-{1-[(5-methylpyrazin-2-yl)methyl]piperidin-4-yl}-1H-benzimidazol-2-yl){4-[4-(trifluoromethyl)benzyl]piperazin-1-yl}methanone trihydrochloride]	–	13	26	IC50 ([1]; read-out: IC50 (Complex I inhibition); mitochondria from MDA-MB-453 tumor, absorbance 600 nm, 37° C.): 83 nM; Anti-tumor effect, inhibition rate (MDA-MB-453 cells; 3 mg/kg): 88% inhibition
COc1ccc(CN2CCC(c3ccc4c(c3)nc(C(=O)N3CCN(Cc5ccc(C(F)(F)F)cc5)CC3)n4C)CC2)cn1 [Example 19]	–	10	8.5	–
COc1ccc(CN2CCC(c3ccc4nc(C(=O)N5CCN(Cc6ccc(C(F)(F)F)cc6)CC5)cn4c3)CC2)cn1 [Example 35]	–	3.6	–	–
CCOc1cnc(CN2CCC(c3ccc4c(c3)cc(C(=O)N3CCN(Cc5ccc(C#N)cc5)CC3)n4C)CC2)cn1 [Example 66]	120	2.8	6.2	Anti-tumor effect, regression rate (MDA-MB-453 cells; 1 mg/kg): 91% regression
COc1ccc(CN2CCC(c3ccc4nc(C(=O)N5CCN(Cc6ccc(C(F)(F)F)cc6)CC5)[nH]c4c3)CC2)cc1 [Example 14]	–	34	7.6	–
